Measurements published in patent publication US10765114B2, “4-amino-6-(pyridyl and 2-substitutedphenyl)-picolinates and 6-amino-2-(pyridyl and 2-substitutedphenyl)-pyrimidine-4-carboxylates and their use as herbicides” (Dow AgroSciences LLC, priority 2013, dated 2020).

Assays:
[1] = test system: LAMPU (purple deadnettle); test: Post-Emergent Test III (Wheat and Barley); assay type: in vivo, Lamium purpureum; conditions: for GR50, LAMPU / GR80, LAMPU / GR90, LAMPU: probit analysis
Experimental: (§1) Seeds of the desired test plant species were planted in Sun Gro MetroMix® 306 planting mixture, which typically has a pH of 6.0 to 6.8 and an organic matter content of about 30 percent, in plastic pots with a surface area of 103.2 square centimeters (cm^2). When required to ensure good germination and healthy plants, a fungicide treatment and/or other chemical or physical treatment was applied. The plants were grown for 7-36 days in a greenhouse with an approximate 14 h photoperiod which was maintained at about 18° C. during the day and 17° C. during the night. Nutrients and water were added on a regular basis and supplemental lighting was provided with overhead metal halide 1000-Watt lamps as necessary. The plants were employed for testing when they reached the second or third true leaf stage.
(§2) A weighed amount, determined by the highest rate to be tested, of each test compound was placed in a 25 mL glass vial and was dissolved in 4 mL of a 97:3 v/v mixture of acetone and DMSO to obtain concentrated stock solutions. […] The concentrated stock solutions obtained were diluted with 20 mL of an aqueous mixture containing acetone, water, isopropyl alcohol, DMSO, Agri-Dex crop oil concentrate, and X-77 surfactant in a 48:39:10:1.5:1.5:0.02 v/v ratio to obtain spray solutions containing the highest application rates. Additional application rates were obtained by serial dilution of 12 mL of the high rate solution into a solution containing 2 mL of 97:3 v/v mixture of acetone and DMSO and 10 mL of an aqueous mixture containing acetone, water, isopropyl alcohol, DMSO, Agri-Dex crop oil concentrate, and X-77 surfactant in a 48:39:10:1.5:1.5:0.02 v/v ratio to obtain ½×, ¼×, ⅛× and 1/16× rates of the high rate. Compound requirements are based upon a 12 mL application volume at a rate of 187 liters per hectare (L/ha). Formulated compounds were applied to the plant material with an overhead Mandel track sprayer equipped with 8002E nozzles calibrated to deliver 187 L/ha over an application area of 0.503 square meters at a spray height of 18 inches (43 cm) above the average plant canopy height. Control plants were sprayed in the same manner with the solvent blank.
(§3) The treated plants and control plants were placed in a greenhouse as described above and watered by subirrigation to prevent wash-off of the test compounds. After 21 dAYS, the condition of the test plants as compared with that of the untreated plants was determined visually and scored on a scale of 0 to 100 percent where 0 corresponds to no injury and 100 corresponds to complete kill and presented as indicated in Table A.
(§4) By applying the well-accepted probit analysis as described by J. Berkson in Journal of the American Statistical Society, 48, 565 (1953) and by D. Finney in “Probit Analysis” Cambridge University Press (1952), herbicidal injury of a specific compound at various rates can be used to calculate GR10, GR20, GR50, GR80 and GR90 values, which are defined as growth reduction factors that correspond to the effective dose of herbicide required to provide plant growth reduction (GR) of 10 percent, 20 percent, 50 percent, 80 percent and 90 percent, respectively. Probit analysis was applied to data collected from multiple dose rates of individual compounds utilizing the procedures explained in the following examples. The analysis of those dose rates is captured in the following tables.

[2] = test system: BRSSS; test: Post-Emergent Test III (Wheat and Barley); assay type: in vivo; conditions: for GR50, BRSSS / GR80, BRSSS / GR90, BRSSS: probit analysis
Method in brief: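 Injury was rated visually on a 0 to 100 percent scale 21 days after treatment, relative to untreated plants, and probit analysis of multiple dose rates gave growth-reduction values. Plants at the second or third true leaf stage had been track-sprayed at 187 L/ha.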

[3] = test system: test plant species in Wheat and Barley; test: Post-Emergent Test III (Wheat and Barley), further species of Table 9; assay type: in vivo; conditions: for Visual Growth Reduction (%) 21 Days After Application, CHEAL: CHEAL lambsquarters (Chenopodium album); for Visual Growth Reduction (%) 21 Days After Application, CHEAL / Visual Growth Reduction (%) 21 Days After Application, GALAP / Visual Growth Reduction (%) 21 Days After Application, STEME / Visual Growth Reduction (%) 21 Days After Application, VIOTR: post-emergent; for Visual Growth Reduction (%) 21 Days After Application, GALAP: GALAP cleavers (Galium aparine); for Visual Growth Reduction (%) 21 Days After Application, STEME: STEME common chickweed (Stellaria media); for Visual Growth Reduction (%) 21 Days After Application, VIOTR: VIOTR wild pansy (Viola tricolor)
Experimental: as §1, §2, §3, §4

[4] = test system: SINAR (wild mustard); test: Post-Emergent Test III (Wheat and Barley); assay type: in vivo, Sinapis arvensis; conditions: for Visual Growth Reduction (%) 21 Days After Application, SINAR: postemergence
Experimental: as §1, §2, §3, §4

[5] = effective dose for growth reduction of 50 percent
[6] = effective dose for growth reduction of 80 percent
[7] = effective dose for growth reduction of 90 percent

Cc1c(-c2cc(N)c(Cl)c(C(=O)O)n2)ccc(Cl)c1Cl [Compound 28]
Visual Growth Reduction (%) 21 Days After Application, LAMPU ([1]; LAMPU purple deadnettle (Lamium purpureum), 17.5 g ai/ha, post-emergent): A (95-100)
Visual Growth Reduction (%) 21 Days After Application, LAMPU ([1]; LAMPU purple deadnettle (Lamium purpureum), 35 g ai/ha, post-emergent): A (95-100)
Visual Growth Reduction (%) 21 Days After Application, LAMPU ([1]; LAMPU purple deadnettle (Lamium purpureum), 70 g ai/ha, post-emergent): A (95-100)
GR50, LAMPU ([1]; LAMPU, growth reduction of 50%, 21 days): 1 g ai/ha
GR80, LAMPU ([1]; LAMPU, growth reduction of 80%, 21 days): 1 g ai/ha
GR90, LAMPU ([1]; LAMPU, growth reduction of 90%, 21 days): 1 g ai/ha
Visual Growth Reduction (%) 21 Days After Application, BRSSS ([2]; BRSSS oil seed rape (Brassica napus), 17.5 g ai/ha, post-emergent): B (85-94)
Visual Growth Reduction (%) 21 Days After Application, BRSSS ([2]; BRSSS oil seed rape (Brassica napus), 35 g ai/ha, post-emergent): B (85-94)
Visual Growth Reduction (%) 21 Days After Application, BRSSS ([2]; BRSSS oil seed rape (Brassica napus), 70 g ai/ha, post-emergent): A (95-100)
GR50, BRSSS ([2]; BRSSS, growth reduction of 50%, 21 days): 1 g ai/ha
GR80, BRSSS ([2]; BRSSS, growth reduction of 80%, 21 days): 5 g ai/ha
GR90, BRSSS ([2]; BRSSS, growth reduction of 90%, 21 days): 18 g ai/ha
Visual Growth Reduction (%) 21 Days After Application, CHEAL ([3]; 17.5 g ai/ha): C (75-84)
Visual Growth Reduction (%) 21 Days After Application, CHEAL ([3]; 35 g ai/ha): C (75-84)
Visual Growth Reduction (%) 21 Days After Application, CHEAL ([3]; 70 g ai/ha): B (85-94)
GR50, CHEAL ([3]; CHEAL, growth reduction of 50%, probit analysis, 21 days): 1 g ai/ha
GR80, CHEAL ([3]; CHEAL, growth reduction of 80%, probit analysis, 21 days): 30 g ai/ha
GR90, CHEAL ([3]; CHEAL, growth reduction of 90%, probit analysis, 21 days): >140 g ai/ha
Visual Growth Reduction (%) 21 Days After Application, GALAP ([3]; 17.5 g ai/ha): F (30-44)
Visual Growth Reduction (%) 21 Days After Application, GALAP ([3]; 35 g ai/ha): E (45-59)
Visual Growth Reduction (%) 21 Days After Application, GALAP ([3]; 70 g ai/ha): D (60-74)
GR50, GALAP ([3]; GALAP, growth reduction of 50%, probit analysis, 21 days): 29 g ai/ha
GR80, GALAP ([3]; GALAP, growth reduction of 80%, probit analysis, 21 days): 120 g ai/ha
GR90, GALAP ([3]; GALAP, growth reduction of 90%, probit analysis, 21 days): >140 g ai/ha
Visual Growth Reduction (%) 21 Days After Application, STEME ([3]; 17.5 g ai/ha): D (60-74)
Visual Growth Reduction (%) 21 Days After Application, STEME ([3]; 35 g ai/ha): C (75-84)
Visual Growth Reduction (%) 21 Days After Application, STEME ([3]; 70 g ai/ha): B (85-94)
GR50, STEME ([3]; STEME, growth reduction of 50%, probit analysis, 21 days): 11 g ai/ha
GR80, STEME ([3]; STEME, growth reduction of 80%, probit analysis, 21 days): 31 g ai/ha
GR90, STEME ([3]; STEME, growth reduction of 90%, probit analysis, 21 days): 53 g ai/ha
Visual Growth Reduction (%) 21 Days After Application, VIOTR ([3]; 17.5 g ai/ha): G (0-29)
Visual Growth Reduction (%) 21 Days After Application, VIOTR ([3]; 35 g ai/ha): G (0-29)
Visual Growth Reduction (%) 21 Days After Application, VIOTR ([3]; 70 g ai/ha): G (0-29)
GR50, VIOTR ([3]; VIOTR, growth reduction of 50%, probit analysis, 21 days): >140 g ai/ha
GR80, VIOTR ([3]; VIOTR, growth reduction of 80%, probit analysis, 21 days): >140 g ai/ha
GR90, VIOTR ([3]; VIOTR, growth reduction of 90%, probit analysis, 21 days): >140 g ai/ha

Nc1c(F)c(-c2ccc(C(F)(F)F)nc2)nc(C(=O)O)c1Cl [Compound 46, 4-amino-5-chloro-3-fluoro-6′-(trifluoromethyl)-[2,3′-bipyridine]-6-carboxylic acid]
Visual Growth Reduction (%) 21 Days After Application, LAMPU ([1]; 35 g ai/ha, postemergence): D (60-74)
Visual Growth Reduction (%) 21 Days After Application, LAMPU ([1]; 70 g ai/ha, postemergence): D (60-74)
Visual Growth Reduction (%) 21 Days After Application, LAMPU ([1]; 140 g ai/ha, postemergence): A (95-100)
GR50, LAMPU [1, 5]: 14 g ai/ha
GR80, LAMPU [1, 6]: 47 g ai/ha
GR90, LAMPU [1, 7]: 89 g ai/ha
Visual Growth Reduction (%) 21 Days After Application, BRSSS ([2]; 35 g ai/ha, postemergence): D (60-74)
Visual Growth Reduction (%) 21 Days After Application, BRSSS ([2]; 70 g ai/ha, postemergence): D (60-74)
Visual Growth Reduction (%) 21 Days After Application, BRSSS ([2]; 140 g ai/ha, postemergence): C (75-84)
GR50, BRSSS [2, 5]: 11 g ai/ha
GR80, BRSSS [2, 6]: >140 g ai/ha
GR90, BRSSS [2, 7]: >140 g ai/ha
Visual Growth Reduction (%) 21 Days After Application, SINAR ([4]; 35 g ai/ha): B (85-94)
Visual Growth Reduction (%) 21 Days After Application, SINAR ([4]; 70 g ai/ha): B (85-94)
Visual Growth Reduction (%) 21 Days After Application, SINAR ([4]; 140 g ai/ha): A (95-100)
GR50, SINAR ([4]; effective dose for growth reduction of 50 percent, probit analysis): 2 g ai/ha
GR80, SINAR ([4]; effective dose for growth reduction of 80 percent, probit analysis): 19 g ai/ha
GR90, SINAR ([4]; effective dose for growth reduction of 90 percent, probit analysis): 62 g ai/ha
